The record followed here is article PMC4503722, “Novel Phenotypic Outcomes Identified for a Public Collection of Approved Drugs from a Publicly Accessible Panel of Assays” (PLoS ONE, 2015).

Where a SMILES comes first, the peptide text is derived from it. Bridges are numbered along the chain shown (N, C = ends). [ ]: non-standard residue; d: D form. hArg = N=C(N)NCCCC[C@H](N)C(=O)O; Mpa = O=C(O)CCS A value given as a limit tells only on which side of the number the result lay.

For assay [1], the system named is endothelial tube formation in co-cultures of ECFCs and ADSCs treated with VEGF. In words: cells. It is filed as cell-based, human. The following applies: for IC50: read-out: VEGF_ADSC\ECFC Angio CD31 TubeArea summarized IC50.
Assay [2] relates to ECFC/ADSC co-culture cell nuclei number. Particulars: for IC50: read-out: VEGF_ADSC\ECFC Angio Hoechst NucArea summarized IC50.

In the case of `Cc1ccc(C(=O)Oc2ccc(C(O)CNC(C)(C)C)cc2OC(=O)c2ccc(C)cc2)cc1` (stereo not shown) [NCGC00253593-01], the “VEGF_ADSC\ECFC Angio CD31 TubeArea IC50/EC50” value in assay [1] is listed as > 10 µM. Also, the “VEGF_ADSC\ECFC Angio Hoechst NucArea IC50/EC50” value in assay [2] is on record as > 10 µM.
Regarding `Cc1onc(-c2c(Cl)cccc2Cl)c1C(=O)Cl` [NCGC00253649-01], in assay [1], the “VEGF_ADSC\ECFC Angio CD31 TubeArea IC50/EC50” value is recorded as > 10 µM. The “VEGF_ADSC\ECFC Angio Hoechst NucArea IC50/EC50” value in assay [2] is reported as > 10 µM.
In the case of `COc1cc(S(N)(=O)=O)cc(C(=O)O)c1OC` [NCGC00253657-01], the “VEGF_ADSC\ECFC Angio CD31 TubeArea IC50/EC50” value in assay [1] was > 10 µM. Also, in assay [2], the “VEGF_ADSC\ECFC Angio Hoechst NucArea IC50/EC50” value is reported as > 10 µM.
The term IC50 denotes the concentration needed to halve the response being measured. As to `O=C(O)C1CCC1` [NCGC00253667-01], the IC50 in assay [1] and in assay [2] was > 10 µM throughout.
In the case of `COc1ccc([C@@H]2Sc3ccccc3NC(=O)[C@@H]2O)cc1` [NCGC00253672-01], the “VEGF_ADSC\ECFC Angio CD31 TubeArea IC50/EC50” value in assay [1] is > 10 µM. Moreover, the “VEGF_ADSC\ECFC Angio Hoechst NucArea IC50/EC50” value in assay [2] is reported as > 10 µM.
`C/C=C(/C(=C/C)c1ccc(OC(C)=O)cc1)c1ccc(OC(C)=O)cc1` [NCGC00253696-01]: the IC50 in assay [1] and in assay [2] was > 10 µM in each case.
With `COc1ccccc1N1CCN(CC(O)COc2cc(OC)c(OC)c(OC)c2)CC1` (stereo not shown) [NCGC00253761-01], in assay [1], the “VEGF_ADSC\ECFC Angio CD31 TubeArea IC50/EC50” value is on record as > 10 µM. Moreover, in assay [2], the “VEGF_ADSC\ECFC Angio Hoechst NucArea IC50/EC50” value is > 10 µM.
Consider `CC[C@]12CCCN3CCc4c(n(c5ccccc45)C(=O)C1)[C@@H]32` [NCGC00262533-02], for which the “VEGF_ADSC\ECFC Angio CD31 TubeArea IC50/EC50” value in assay [1] is on record as > 10 µM. The “VEGF_ADSC\ECFC Angio Hoechst NucArea IC50/EC50” value in assay [2] is listed as > 10 µM.
`O=C1CC(c2ccc(Cl)cc2)CC(=O)N1` [NCGC00262922-01]: the “IC50/EC50, VEGF_ADSC\ECFC Angio CD31 TubeArea (assay number 2)” value in assay [1] is reported as > 10 µM. Besides, the “IC50/EC50, VEGF_ADSC\ECFC Angio Hoechst NucArea (assay number 3)” value in assay [2] was > 10 µM.
With `NC(=O)[C@@H]1CSSCCC(=O)N[C@@H](CCCCN=C(N)N)C(=O)NCC(=O)N[C@@H](CC(=O)O)C(=O)N[C@@H](Cc2c[nH]c3ccccc23)C(=O)N2CCC[C@H]2C(=O)N1` [NCGC00263524-01] ([Mpa][hArg]GDWPC-NH2; disulfide 1-7), the “VEGF_ADSC\ECFC Angio CD31 TubeArea IC50/EC50” value in assay [1] is given as > 10 µM. In addition, the “VEGF_ADSC\ECFC Angio Hoechst NucArea IC50/EC50” value in assay [2] is on record as > 10 µM.
On to `CCOC(=O)C1=C(C)NC(C)=C(C(=O)OCC)C1c1ccccc1/C=C/C(=O)OC(C)(C)C` [NCGC00263529-01], for which the “IC50/EC50, VEGF_ADSC\ECFC Angio CD31 TubeArea (assay number 2)” value in assay [1] is > 10 µM. Further, in assay [2], the “IC50/EC50, VEGF_ADSC\ECFC Angio Hoechst NucArea (assay number 3)” value is on record as > 10 µM.
Turning to `CCOC(=O)[C@H](CCc1ccccc1)N[C@@H](C)C(=O)N1Cc2cc(OC)c(OC)cc2C[C@H]1C(=O)O.Cl` [NCGC00263546-01], the “VEGF_ADSC\ECFC Angio CD31 TubeArea IC50/EC50” value in assay [1] is given as > 10 µM. Further, the “VEGF_ADSC\ECFC Angio Hoechst NucArea IC50/EC50” value in assay [2] is > 10 µM.
For `COc1cccc2c1C(=O)c1c(O)c3c(c(O)c1C2=O)C[C@@](O)(C(=O)CO)C[C@@H]3O[C@H]1C[C@H](N)[C@H](O)[C@H](C)O1.Cl` [NCGC00263918-03], in assay [1], the “VEGF_ADSC\ECFC Angio CD31 TubeArea IC50/EC50” value is 0.0429 µM. Moreover, in assay [2], the “VEGF_ADSC\ECFC Angio Hoechst NucArea IC50/EC50” value is reported as 0.114 µM.
For `CC(=O)O[C@H]1C[C@H](O[C@H]2[C@@H](O)C[C@H](O[C@@H]3[C@@H](O)C[C@H](O[C@H]4CC[C@@]5(C)[C@H](CC[C@@H]6[C@H]5C[C@@H](O)[C@]5(C)[C@@H](C7=CC(=O)OC7)CC[C@]65O)C4)O[C@@H]3C)O[C@@H]2C)O[C@H](C)[C@H]1O[C@@H]1O[C@H](CO)[C@@H](O)[C@H](O)[C@@H]1O` [NCGC00344547-01], in that order: 0.0702 µM and 0.2792 µM.
